Like-named read-outs stand apart in the source and are kept apart here.
Legend:
Assay type in all cases: cell-based, Plasmodium falciparum
[1] = test system: P. falciparum (NF54) stage V gametocytes; assay: Stage V gametocyte viability assay (MitoTracker Red CMXRos high content imaging); conditions: for inhibition at 2 µM: read-out: Stg V Gam primary screen: Inhibition % (2uM) (n=2)
[2] = test system: P. falciparum Dd2 (PfLuc) line expressing firefly luciferase, asexual blood stage; assay: microbe, parasite or virus in culture; conditions: Plasmodium falciparum
P. falciparum Dd2 = assay: SYBR green I asexual blood stage proliferation assay (96 h); conditions: Plasmodium falciparum, DD2, 11-pt dose response, 96hr
[3] = Plasmodium falciparum, NF54, 72 h, read-out: Stg V Gam dose response IC50 (µM) (n=3), 10-point dose response, n=3, 72 h
[4] = DD2, read-out: CDD P. falciparum Luciferase ABS 11-pt Reconfirmation Dose Response (48hr): IC50 (μM), 11-pt dose response, 48hr
[5] = DD2, 8-pt dose response, 96hr, read-out: CDD P. falciparum Luciferase ABS 8-pt Reconfirmation Dose Response (96hr): IC50
[6] = DD2, 8-pt dose response, 96hr, read-out: CDD P. falciparum Luciferase ABS 8-pt Reconfirmation Dose Response (96hr): Maximum inhibition (%)
[7] = DD2, 11-pt dose response, 96hr, read-out: CDD P. falciparum Luciferase ABS 11-pt Reconfirmation Dose Response (96hr): IC50
[8] = DD2, 11-pt dose response, 96hr, read-out: CDD P. falciparum Luciferase ABS 11-pt Reconfirmation Dose Response (96hr): Maximum inhibition (%)
[9] = Sybr Green I, read-out: CDD P. falciparum Sybr Green I ABS 11-pt Reconfirmation Dose Response (96hr): IC50
[10] = Sybr Green I, read-out: CDD P. falciparum Sybr Green I ABS 11-pt Reconfirmation Dose Response (96hr): Maximum inhibition (%)
[11] = Plasmodium falciparum, NF54, 72 h
[12] = DD2, 11-pt dose response, 48hr, read-out: CDD P. falciparum Luciferase ABS 11-pt Reconfirmation Dose Response (48hr): Maximum inhibition (%)
[13] = Plasmodium falciparum, NF54, 72 h, read-out: GAM V IC50, stage V gametocytes, 72 h
[14] = DD2, read-out: P. falciparum Luciferase ABS 11-pt Reconfirmation Dose Response (48hr): IC50, 11-pt dose response, 48hr
[15] = DD2, 8-pt dose response, 96hr, read-out: P. falciparum Luciferase ABS 8-pt Reconfirmation Dose Response (96hr): IC50
[16] = DD2, 8-pt dose response, 96hr, read-out: P. falciparum Luciferase ABS 8-pt Reconfirmation Dose Response (96hr): Maximum inhibition (%)
[17] = DD2, 11-pt dose response, 48hr, read-out: P. falciparum Luciferase ABS 11-pt Reconfirmation Dose Response (48hr): Maximum inhibition (%)
[18] = DD2, 11-pt dose response, 96hr, read-out: P. falciparum Luciferase ABS 11-pt Reconfirmation Dose Response (96hr): IC50
[19] = DD2, 11-pt dose response, 96hr, read-out: P. falciparum Luciferase ABS 11-pt Reconfirmation Dose Response (96hr): Maximum inhibition (%)
[20] = read-out: P. falciparum Sybr Green I ABS 11-pt Reconfirmation Dose Response (96hr): IC50
[21] = read-out: P. falciparum Sybr Green I ABS 11-pt Reconfirmation Dose Response (96hr): Maximum inhibition (%)

SMILES	IC50 [1, 3]	IC50 [2, 4]	IC50 [2, 5]	Emax [2, 6]	IC50 [2, 7]	Emax [2, 8]	IC50 (P. falciparum Dd2; [9])	Emax (P. falciparum Dd2; [10])	inhibition at 2 µM [1, 11]	Emax [2, 12]	IC50 [1, 13]	IC50 [2, 15]	other results
NC(=O)c1cccc2nc([C@H]3CCN(Cc4ccccn4)C3)[nH]c12 [DDD01025389, NC(=O)C1=C2NC(=NC2=CC=C1)[C@H]1CCN(CC2=CC=CC=N2)C1]	0.125 µM	0.058 µM	0.0339 µM	98.4%	0.0101 µM	101%	80.7 nM	86.6%					
COc1ccc(NC(=O)Cn2nc(C)c(C(C)=O)c2C)cc1 [DDD01027600, COC1=CC=C(NC(=O)CN2N=C(C)C(C(C)=O)=C2C)C=C1]	3.74 µM	1.9 µM	0.49 µM	92.8%	1.45 µM	92.8%	4580 nM		53.5%	87%			
COc1ccc(-c2c(C)nn3c(=N)c(C#N)n[nH]c23)cc1OC [DDD01035187, COC1=CC=C(C=C1OC)C1=C2N=NC(C#N)=C(N)N2N=C1C]	8.2 µM	1.18 µM	0.57 µM	93%	0.841 µM	98.5%	5980 nM	90.8%	61.6%	95.8%			
Cc1cccc(CN2CCCC2c2cccc(Nc3nccs3)n2)c1 (centres unmarked) [DDD01057018, CC1=CC=CC(CN2CCCC2C2=CC=CC(NC3=NC=CS3)=N2)=C1]	0.115 µM	0.914 µM	1.04 µM	94.6%	0.53 µM	101%			90.4%	93.5%	0.12 µM		
Cc1nn(C)cc1C1=NS(=O)(=O)N(C)C(C(=O)Nc2ccc(Br)cc2)=C1 [DDD01058697, CN1C=C(C(C)=N1)C1=NS(=O)(=O)N(C)C(=C1)C(=O)NC1=CC=C(Br)C=C1]		0.55 µM	0.2 µM	95.2%	0.281 µM	101%	321 nM	99.9%		99.4%			IC50 ([1]; Plasmodium falciparum, NF54, read-out: Stg V Gam dose response IC50 (µM) (n=3), 10-point dose response, n=3, 72 h): 2.78 µM; inhibition at 2 µM ([1]; Plasmodium falciparum, NF54, Table S6, 2uM, n=2, 72 h): 53.2%
COc1ccc(C)cc1CN1CCC(c2cc3ncccc3cn2)CC1 [DDD01058767, COC1=CC=C(C)C=C1CN1CCC(CC1)C1=NC=C2C=CC=NC2=C1]	2.51 µM	0.0507 µM	0.25 µM	96.3%	0.0439 µM	100%	136 nM	101%	85.5%	98.5%			
CC(C)(C)c1cn2c(n1)C(CNCc1ccccn1)CCC2 (centres unmarked) [DDD01062588, CC(C)(C)C1=CN2CCCC(CNCC3=CC=CC=N3)C2=N1]	0.069 µM								86.8%		0.07 µM	1.44 µM	IC50 [2, 14]: 2.9 µM; Emax [2, 16]: 91.5%; Emax [2, 17]: 90.4%; IC50 [2, 18]: 1.41 µM; Emax [2, 19]: 98.6%; IC50 (P. falciparum Dd2; [20]): 1720 nM; Emax (P. falciparum Dd2; [21]): 87.3%
Fc1cccc(C(NCc2ncc[nH]2)c2ccccn2)c1 (centres unmarked) [DDD01064153, FC1=CC=CC(=C1)C(NCC1=NC=CN1)C1=CC=CC=N1]	1.55 µM	5.61 µM	0.45 µM		0.644 µM	97.4%	5580 nM	82.6%	63.2%	86.1%	1.55 µM		
Clc1cccc(C(NCc2ncc[nH]2)c2ccccn2)c1 (centres unmarked) [DDD01064155, ClC1=CC=CC(=C1)C(NCC1=NC=CN1)C1=CC=CC=N1]	2.06 µM	1.99 µM	0.27 µM	94.2%	0.408 µM	98.7%	3750 nM	88.1%	59.1%	94.1%	2.06 µM		
CN(CCc1cccc2ccccc12)Cc1nc(N)nc(N(C)C)n1 [DDD01076782, CN(CCC1=C2C=CC=CC2=CC=C1)CC1=NC(N)=NC(=N1)N(C)C]	3.99 µM								74.3%			1.67 µM	
CNc1cc(C)nc(NC2CCCN(C3Cc4ccccc4C3)C2)n1 (centres unmarked) [DDD01243506, CNC1=CC(C)=NC(NC2CCCN(C2)C2CC3=CC=CC=C3C2)=N1]	2.91 µM								62.9%			1.33 µM	IC50 [2, 14]: 1.16 µM; Emax [2, 17]: 94.3%; IC50 [2, 18]: 0.707 µM; Emax [2, 19]: 100%; IC50 (P. falciparum Dd2; [20]): 957 nM; Emax (P. falciparum Dd2; [21]): 96.1%
CN(Cc1ccsc1)c1nc(-c2ccccn2)nc2c1CCNCC2 [DDD01243664, CN(CC1=CSC=C1)C1=NC(=NC2=C1CCNCC2)C1=CC=CC=N1]	0.732 µM	0.752 µM	0.52 µM	95.1%	0.299 µM	98.7%	872 nM	78.7%	95.1%	89.8%	0.73 µM		IC50 ([1]; read-out: GAM V IC50, stage V gametocytes, 72 h): < 1 µM; IC50 ([2]; DD2, asexual blood stage, assay format not given, read-out: ABS IC50): < 1 µM
CN(CCO)Cc1cc(Cl)ccc1OCC(O)CN1CCCCCC1 (centres unmarked) [DDD01243745, CN(CCO)CC1=CC(Cl)=CC=C1OCC(O)CN1CCCCCC1]	5.69 µM	2.92 µM	0.95 µM	93.5%	1.45 µM	98.8%	1090 nM	99.1%	54.7%	97%			
OC1(CN2CCC(Oc3cccc(C(F)(F)F)c3)CC2)CCNC1 (centres unmarked) [DDD01245291, OC1(CN2CCC(CC2)OC2=CC=CC(=C2)C(F)(F)F)CCNC1]	2.42 µM	2.08 µM	0.88 µM	93.8%	0.958 µM	99.5%	1930 nM	96.4%	50.1%	95.9%			
CCc1ccc2nc(NCCCN(CCO)CCO)cc(C)c2c1 [DDD01247914, CCC1=CC=C2N=C(NCCCN(CCO)CCO)C=C(C)C2=C1]	3.72 µM	3.94 µM	1.07 µM	91.1%	1.68 µM	99.8%	3610 nM	94%	59.7%	92.3%			
CCc1[nH]c2c(CNc3cc(C)nc(NC)n3)cc(C)cc2c1C [DDD01250162, CCC1=C(C)C2=CC(C)=CC(CNC3=CC(C)=NC(NC)=N3)=C2N1]	4.9 µM								64.1%		4.9 µM	1.31 µM	IC50 [2, 14]: > 12.5 µM; Emax [2, 16]: 92.3%; Emax [2, 17]: 38.8%; IC50 [2, 18]: > 12.5 µM; Emax [2, 19]: 45.4%; IC50 (P. falciparum Dd2; [20]): 1550 nM; Emax (P. falciparum Dd2; [21]): 94.1%
CSc1ccc(-c2nc(CN3CCC(CN)C3)c(C)o2)cc1 (centres unmarked) [DDD01250168, CSC1=CC=C(C=C1)C1=NC(CN2CCC(CN)C2)=C(C)O1]	2.42 µM								63%			1.6 µM	Emax [2, 16]: 93.1%
CCN(CCN(C)C)c1nc(CCN)nc2sc(C)c(C)c12 [DDD01251823, CCN(CCN(C)C)C1=C2C(C)=C(C)SC2=NC(CCN)=N1]	4.42 µM								58.8%			1.8 µM	Emax [2, 16]: 92.8%
Cc1ccc(-c2nc(CNC(C)CCO)[nH]c2-c2ccccn2)cc1 (centres unmarked) [DDD01253542, CC(CCO)NCC1=NC(=C(N1)C1=CC=C(C)C=C1)C1=CC=CC=N1]	1.09 µM								70.9%		1.09 µM	1.81 µM	
Cc1cc(CN(C)c2nc(-c3ccccn3)nc3c2CCNCC3)n[nH]1 [DDD01255965, CN(CC1=CC(C)=NN1)C1=NC(=NC2=C1CCNCC2)C1=CC=CC=N1]	0.875 µM								61.9%		0.88 µM		IC50 ([2]; 96 h incubation, Dd2 luciferase, read-out: 96 hour Pfluc IC50): > 10 µM

From publication PMC7155171, “Probing the Open Global Health Chemical Diversity Library for Multistage-Active Starting Points for Next-Generation Antimalarials” (ACS Infectious Diseases, 2020)
